# Measurements from US10385057B2, “Pyrazole compounds and methods of making and using same” (Lundbeck La Jolla Research Center, Inc., priority 2015, dated 2019).
# Experiments:
# [1] = target: T1, MAGL (Mus musculus, UniProt O35678); assay: In vitro competitive activity-based protein profiling, mouse MAGL; format: biochemical; conditions: for inhibition at 1 µM: read-out: MAGL % inh. 1 μM (mouse)
# T1 construct: mouse brain membrane fraction or cell lysates for mouse assays; from tissue
# T1 sequence (O35678 1-303): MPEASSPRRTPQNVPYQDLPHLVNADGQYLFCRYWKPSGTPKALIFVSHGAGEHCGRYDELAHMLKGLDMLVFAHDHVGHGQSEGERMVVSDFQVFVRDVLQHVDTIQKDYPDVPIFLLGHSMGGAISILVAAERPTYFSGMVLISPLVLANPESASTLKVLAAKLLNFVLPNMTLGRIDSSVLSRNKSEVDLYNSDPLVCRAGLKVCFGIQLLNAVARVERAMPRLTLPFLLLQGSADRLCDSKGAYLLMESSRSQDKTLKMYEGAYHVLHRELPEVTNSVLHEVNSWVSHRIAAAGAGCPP
# Experimental: (§1) In Vitro Competitive Activity-Based Protein Profiling.
# (§2) Proteomes (mouse brain membrane fraction or cell lysates for mouse assays; human prefrontal cortex or cell membrane fractions for human assays) (50 μL, 1.0 mg/mL total protein concentration) were preincubated with varying concentrations of inhibitors at 37° C. After 30 min, FP-Rh or HT-01 (1.0 μL, 50 μM in DMSO) was added and the mixture was incubated for another 30 min at 37° C. Reactions were quenched with SDS loading buffer (15 μL—4×) and run on SDS-PAGE. Following gel imaging, serine hydrolase activity was determined by measuring fluorescent intensity of gel bands corresponding to MAGL and FAAH using ImageJ 1.43u software.
# [2] = target: T2, FAAH (Mus musculus, UniProt O08914); assay: In vitro competitive activity-based protein profiling, mouse FAAH; format: biochemical; conditions: for inhibition at 1 µM: read-out: FAAH % inh. 1 μM (mouse)
# T2 construct: mouse brain membrane fraction or cell lysates for mouse assays; from tissue
# T2 sequence (O08914 1-579): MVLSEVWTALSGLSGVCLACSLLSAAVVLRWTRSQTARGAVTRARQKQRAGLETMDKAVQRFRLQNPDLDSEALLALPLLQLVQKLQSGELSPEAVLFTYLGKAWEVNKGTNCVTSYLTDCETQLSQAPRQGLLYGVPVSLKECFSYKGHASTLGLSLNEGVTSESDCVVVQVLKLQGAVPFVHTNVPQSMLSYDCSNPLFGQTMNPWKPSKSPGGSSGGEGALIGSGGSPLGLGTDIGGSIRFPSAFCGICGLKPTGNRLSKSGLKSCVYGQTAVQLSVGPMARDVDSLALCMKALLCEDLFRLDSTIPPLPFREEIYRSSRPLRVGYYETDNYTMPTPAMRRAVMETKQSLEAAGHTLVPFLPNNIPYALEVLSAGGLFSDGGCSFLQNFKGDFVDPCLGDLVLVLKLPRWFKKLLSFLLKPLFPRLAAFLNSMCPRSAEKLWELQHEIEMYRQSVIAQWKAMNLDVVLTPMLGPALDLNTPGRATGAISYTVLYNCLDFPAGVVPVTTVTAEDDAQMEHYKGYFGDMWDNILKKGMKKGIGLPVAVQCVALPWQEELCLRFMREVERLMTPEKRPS
# Experimental: as §1, §2
Compound,MAGL % inh. 1 μM (mouse) ([1]; 1 μM),inhibition at 1 µM [2] [%],IC50 [1] [nM],inhibition at 1 µM ([1]; 1 μM) [%],IC50 [2] [nM]
"CNC(=O)c1cnn(C(=O)N2C[C@H]3C[C@@H](N(C)Cc4ccccc4Cl)C[C@H]3C2)c1 [Example 56, 1-(trans-5-((2-chlorobenzyl)(methyl)amino)octahydrocyclopenta[c]pyrrole-2-carbonyl)-N-methyl-1H-pyrazole-4-carboxamide]",C (% inhibition greater than or equal to 25% and less than 50%),≥ 75,–,–,–
"COc1ccc(CN2CC3CN(C(=O)n4cc(C(F)(F)F)cn4)CC3C2)cc1 (centres unmarked) [Example 148, (5-(4-methoxybenzyl)hexahydropyrrolo[3,4-c]pyrrol-2(1H)-yl)(4-(trifluoromethyl)-1H-pyrazol-1-yl)methanone]",–,≥ 75,100 to 1000,≥ 75,≤ 100
"O=C(N1CCC2(CCN(Cc3ccc(N4CCCC4)cc3)C2)C1)n1cc(Cl)cn1 (centres unmarked) [Example 134, (4-chloro-1H-pyrazol-1-yl)(7-(4-(pyrrolidin-1-yl)benzyl)-2,7-diazaspiro[4.4]nonan-2-yl)methanone]",–,≥ 75,100 to 1000,≥ 75,≤ 100
"O=C(N1CCC2(CCN(Cc3cccc(N4CCCC4)c3)C2)C1)n1cc(C(F)(F)F)cn1 (centres unmarked) [Example 174, (7-(3-(pyrrolidin-1-yl)benzyl)-2,7-diazaspiro[4.4]nonan-2-yl)(4-(trifluoromethyl)-1H-pyrazol-1-yl)methanone]",–,≥ 75,–,≥ 75,–
"O=C(c1cnn(C(=O)N2CC3CN(Cc4cc(Cl)cc(C(F)(F)F)c4)CC3C2)c1)N1CCOCC1 (centres unmarked) [Example 10, (5-(3-chloro-5-(trifluoromethyl)benzyl)hexahydropyrrolo[3,4-c]pyrrol-2(1H)-yl)(4-(morpholine-4-carbonyl)-1H-pyrazol-1-yl)methanone]",–,≥ 75,–,≥ 75,–
"CN(Cc1cc(N2CCCC2)cc(C(F)(F)F)c1)[C@H]1C[C@@H]2CN(C(=O)n3cc(C(N)=O)cn3)C[C@@H]2C1 [Example 217, 1-(trans-5-(methyl(3-(pyrroldin-1-yl)-5-(trifluoromethyl)benzyl)amino)octahydrocyclopenta[c]pyrrole-2-carbonyl)-1H-pyrazole-4-carboxamide]",–,≥ 75,–,≥ 75,–
"O=C(c1cnn(C(=O)N2CCC3(CCN(Cc4ccc(N5CCOCC5)cc4C(F)(F)F)C3)C2)c1)N1CCOCC1 (centres unmarked) [Example 51, (4-(morpholine-4-carbonyl)-1H-pyrazol-1-yl)(7-(4-morpholino-2-(trifluoromethyl)benzyl)-2,7-diazaspiro[4.4]nonan-2-yl)methanone]",–,≥ 75,–,25 to 50,–
"CN(Cc1cccc(Oc2ccccc2)c1)[C@@H]1C[C@@H]2CN(C(=O)n3cc(Cl)cn3)C[C@@H]2C1 [Example 164, (4-chloro-1H-pyrazol-1-yl)(cis-5-(methyl(3-phenoxybenzyl)amino)hexahydrocyclopenta[c]pyrrol-2(1H)-yl)methanone]",–,≥ 75,≤ 100,≥ 75,≤ 100
"CC1COCCN1c1cc(Cl)ccc1CN1CC2CN(C(=O)n3cc(Cl)cn3)CC2C1 (centres unmarked) [Example 105, (4-chloro-1H-pyrazol-1-yl)(5-(4-chloro-2-(3-methylmorpholino)benzyl)hexahydropyrrolo[3,4-c]pyrrol-2(1H)-yl)methanone]",–,≥ 75,–,≥ 75,–
"CN(Cc1ccc(C(F)(F)F)cc1)[C@@H]1C[C@@H]2CN(C(=O)n3cc(C(=O)N4CCN(C5CC5)CC4)cn3)C[C@@H]2C1 [Example 98, (4-cyclopropylpiperazin-1-yl)(1-(cis-5-(methyl(4-(trifluoromethyl)benzyl)amino)octahydrocyclopenta[c]pyrrole-2-carbonyl)-1H-pyrazol-4-yl)methanone]",–,25 to 50,–,≥ 75,–
